Test results from patent US20250206708A1, “AN OXAZIRIDINE PLATFORM FOR TARGETING FUNCTIONAL ALLOSTERIC METHIONINE SITES” (Novartis AG, priority 2022, published 2025).

Experiments:
[1] = sulfimine adduct; obtained from previous report; the values are: ln(kobs), kobs in 1/h; cited from earlier work
CDK4 = assay: Western blot of Rb phosphorylation (S780, S807/811) as cellular CDK4 activity; type: cell-based, human; conditions: serum-synchronized MCF-7 cells, dose of 500 μM
Experimental: Cells were synchronized to G1 via serum starvation. Cells were plated at 50% confluency and allowed to adhere overnight in serum-containing media. The next morning, the cells were gently washed twice with HBSS, and serum-free media was added. Cells were allowed to incubate an additional […], […]. Final cell confluency should remain below 75% for optimal results.
Cells were seeded in full media at 8 e5 cells/well in a 6-well plate. They were then serum-synchronized, as outlined in Example 15, and treated with compound as described previously. Cells were monitored by eye for cell death and harvested once high-dose cells were round but not detached. Cells were transferred to ice and washed twice gently with 1 mL ice-cold PBS. 10 mL of lysis buffer was prepared by dissolved a protease-inhibitor table (Pierce; cat no. A32953) and a phosphatase-inhibitor tablet (Roche; cat no. 4906845001) in 10 mL PBS (1% Triton X-100). Cells were scraped to harvest, transferred to 1.5 mL Eppendorf tubes, and incubated at 4° C. for 30 min on a rotator. Samples were spun at 5000×g for 10 min to clarify lysate. Supernatant was transferred to a new tube and protein concentration quantified via BCA assay (Pierce; cat no. 23225). Samples were normalized to the lowest concentration using chilled lysis buffer. […]

SMILES | Rate of Hydrolysis (In(kobs)) [1] | signal from pRb antibodies (cellular CDK4 activity) (CDK4)
CS(C)=NC(=O)NC(c1ccccc1)c1ccccc1 | 0.24 | –
CC(C)NC(=O)N=S(C)C | 0.044 | –
C#CCOC(=O)N1C[C@@H]2CN(C(=O)N3OC3c3ccccc3)C[C@@H]2C1 (stereo partly shown) [Compound 300] | – | marked decrease in signal
CS(C)=NC(=O)NC1CCCCC1 | 0.032 | –
CS(C)=NC(=O)NCC(F)(F)F | 0.53 | –
CCOC(=O)N=S(C)C | 1.69 | –
CS(C)=NC(=O)NCC(C)(C)C | -0.15 | –
CS(C)=NC(=O)NCc1ccccc1 | 0.29 | –
CS(C)=NC(=O)N1CCCC1 | -0.96 | –
CC(C)CNC(=O)N=S(C)C | -0.085 | –
CS(C)=NC(=O)NC(C)(C)C | -0.28 | –
CS(C)=NC(=O)N1CCCCC1 | -1.81 | –
CCNC(=O)N=S(C)C | 0.17 | –
